This note sets out measurements from patent US5214034A, “Catechol derivatives, and preventive and remedial preparations for regressive disorders in the central nervous system containing the same” (priority 1986, dated 1993).

The structures appear in SMILES notation. “Also recorded” adds a separate entry of the source. Read-outs that look alike come from different tables or passages of the source.

Data set [1] can be described thus: Acute toxicity (LD50). To be noted: mouse, in vivo. As for the experimental part:
The catechol derivative having normal type saturated lower alkyl groups on the ring was administered by intravenous injection (i.v.), intraperitoneal injection (i.p.) or oral route (p.o.) to male ddy mice of 4-week old. The LD50 values (mg/kg) were measured by an ordinary method.

Data set [2] has as its system NGF. Description: NGF production in the central nervous system of normal rats by intraperitoneal injection (NGF content of brain tissue, ELISA). It counts as in vivo, rat (Wistar male). Here is the method:
The derivative (A), e.g. R=Two H, R1 =H and R2 =n-propyl (hereinafter referred to as 4-n-propylcatechol), was administered to normal rats by intraperitoneal injection, and the effect was examined.
4-n-Propylcatechol was administered by intraperitoneal injection 4 times every other day in a dosage of 5 mg/kg. The rats were killed two days after the final administration. The NGF content of each parts in brain was measured. The content was compared with those of control group which was administered saline alone.
A variety of the derivative was administered three times every other day. The content of NGF in the forebrain after 48 hours and 7 days from the final administration was measured and illustrated in Table 7.
Wistar male rats (9-10-week old, 200-250 g of weight) were intraperitoneally injected with the test derivative in a volume of 0.5 ml as a saline solution, emulsion or suspension. Dose and administration times were the same as above. The rats were killed by a hard spinal blow two days after the final administration. Each parts of brain were dissected and subjected to the following treatment under ice cooling.
Each parts of brain were weighed and homogenized for 30 strokes by a Dounce type homogenizer in a homogenization buffer (0.1 M Tris-HCl, containing 2% bovine serum albumin fraction V, 2% gelatin, 1.0 M NaCl, 0.02% NaN3, 2 mM EDTA and 2.6 kiu/ml of aprotinin, pH 7.6) at a concentration of 10% (W/V) (only septum 5% (W/V)). Each homogenate was centrifuged at 100,000 xg for 10 minutes, and 50 μl of supernatant was added with the same amount of a dilution buffer (0.1 M Tris-HCl containing 2% bovine serum albumin fraction V, 0.05% NaN3 and 20 mM CaCl2, pH 7.6). Determination was conducted in accordance with a method of S. Furukawa et al. by using a high sensitivity ELISA system on 8-NGF which was described in J. Neurochem., 40, 734-744 (1983). Lower limit of determination is 0.25 pg/ml. Data are indicated as a mean value ±SE on the NGF content of tissue (pg/mg wet tissue) of five rats.
Background: An ELISA detects its analyte on a solid surface through an enzyme-linked reagent.

Where [3] appears, read: Table 6, i.p. 5 mg/kg, 4 times every other day.
Setting [4] is: Table 6, i.p. 5 mg/kg, 4 times every other day, **P 0.01 vs saline.

For the compound `CCCc1ccc(O)c(O)c1` [R = Two H, R1 = H, R2 = n-Propyl, 4-n-propylcatechol], the LD50 in data set [1] (ip, intraperitoneal injection, read-out: LD50 i.p.) is > 500 mg/kg. Moreover, in data set [1] (intravenous injection, read-out: LD50 i.v.), the LD50 was > 150 mg/kg. In addition, the LD50 in data set [1] (oral route, read-out: LD50 p.o.) is > 1500 mg/kg. For the same compound, the “NGF production in brain regions (in words)” value in data set [2] is “marked activation of NGF production was observed in frontal cortex, hippocampus and olfactory bulb; also recorded: Significant increase in NGF level was also observed in the original region of cholinergic tracts”. In addition, in data set [2] (setting [3]), the “NGF content, cerebellum” value was determined as 0.33 ± 0.16 pg/mg wet tissue and the “NGF content, striatum” value stood at 0.24 ± 0.04 pg/mg wet tissue. Further, in data set [2] (setting [4]), the “NGF content, NBM (nucleus basalis magnecellularis)” value is on record as 1.69 ± 0.17 pg/mg wet tissue; the “NGF content, olfactory bulb” value is reported as 1.70 ± 0.24 pg/mg wet tissue; the “NGF content, septum” value is given as 1.39 ± 0.14 pg/mg wet tissue. In data set [2] (Table 6, i.p. 5 mg/kg, 4 times every other day, *P < 0.05 vs saline), the “NGF content, hippocampus” value was found to be 3.92 ± 0.63 pg/mg wet tissue. In addition, the “NGF content, frontal cortex” value in data set [2] (Table 6, i.p. 5 mg/kg, 4 times every other day, two days after final administration, *P < 0.05 vs saline) is given as 2.14 ± 0.49 pg/mg wet tissue. Moreover, in data set [2] (Table 7, i.p., three times every other day, 48 hours after final administration), the “NGF content after 48 hr.” value is 1.97 ± 0.41 pg/mg wet tissue of frontal co. Also, the “NGF content after 7 days” value in data set [2] (Table 7, i.p., three times every other day, 7 days after final administration) is reported as 2.28 ± 0.29 pg/mg wet tissue of frontal co.

A word on the LD50: it is the dose at which mortality reaches 50%.
